Molecules are shown by their SMILES. In brackets after ≈: the same amount, converted by molar mass.

The subject of the first assay is Vaccinia virus. The assay is described as follows: Concentration required to reduce vaccinia virus induced cytopathogenicity by 50% in primary rabbit kidney cell cultures. The class given is functional. The conditions noted are these: Orthopoxvirus vaccinia.
As for `Nc1ncnc2c1c(I)cn2[C@@H]1O[C@H](CO)[C@@H](O)[C@H]1O` [IODOTUBERCIDIN], the MIC was found to be 0.07 µg/mL (≈ 0.179 µM).

For the compound `NC(=O)c1cn([C@@H]2O[C@H](CO)[C@@H](O)[C@H]2O)c2ncnc(N)c12` [SANGIVAMYCIN], the MIC is 0.02 µg/mL (≈ 0.0647 µM).

With `CCCCc1cn(C2O[C@H](CO)[C@@H](O)[C@H]2O)c2ncnc(N)c12` (some centres undefined), the MIC was greater than 40 µg/mL.

Compound `Nc1ncnc2c1c(Br)c(Br)n2C1O[C@H](CO)[C@@H](O)[C@H]1O` (some centres undefined) returned an MIC of 20 µg/mL (≈ 47.2 µM).

Consider `Nc1ncnc2c1c(Br)cn2[C@@H]1O[C@H](CO)[C@@H](O)[C@H]1O`, for which the MIC stood at 0.2 µg/mL (≈ 0.579 µM).

Consider `N#C/C=C/c1cn(C2O[C@H](CO)[C@@H](O)[C@H]2O)c2ncnc(N)c12` (some centres undefined), for which the MIC was determined as 0.7 µg/mL (≈ 2.21 µM).

Take `Nc1ncnc2c1c(CCCO)cn2C1O[C@H](CO)[C@@H](O)[C@H]1O` (some centres undefined): the MIC amounted to 2 µg/mL (≈ 6.17 µM).

Take `Nc1ncnc2c1c(Cl)cn2[C@@H]1O[C@H](CO)[C@@H](O)[C@H]1O`: the MIC is greater than 1 µg/mL.

Turning to `C/C=C/Cc1cn(C2O[C@H](CO)[C@@H](O)[C@H]2O)c2ncnc(N)c12` (some centres undefined), the MIC worked out at 0.7 µg/mL (≈ 2.19 µM).

Regarding `Nc1ncnc2c1ccn2[C@@H]1O[C@H](CO)[C@@H](O)[C@H]1O` [TUBERCIDIN], the MIC stood at 0.02 µg/mL (≈ 0.0751 µM).

Turning to `Nc1ncnc2c1c(Cl)c(Cl)n2C1O[C@H](CO)[C@@H](O)[C@H]1O` (some centres undefined), the MIC is greater than 40 µg/mL.

For the compound `COC(C)c1cn(C2O[C@H](CO)[C@@H](O)[C@H]2O)c2ncnc(N)c12` (some centres undefined), the MIC was found to be 0.7 µg/mL (≈ 2.16 µM).

The compound `Nc1ncnc2c1c(/C=C/Br)cn2C1O[C@H](CO)[C@@H](O)[C@H]1O` (some centres undefined) displayed an MIC greater than 1 µg/mL.

As to `CC(O)c1cn(C2O[C@H](CO)[C@@H](O)[C@H]2O)c2ncnc(N)c12` (some centres undefined), the MIC was found to be 0.7 µg/mL (≈ 2.26 µM).

As to `Nc1ncnc2c1cc(Br)n2C1O[C@H](CO)[C@@H](O)[C@H]1O` (some centres undefined), the MIC came to 300 µg/mL (≈ 869 µM).

Compound `N#Cc1cn([C@@H]2O[C@H](CO)[C@@H](O)[C@H]2O)c2ncnc(N)c12` [TOYOCAMYCIN] showed an MIC greater than 0.01 µg/mL.

Regarding `NC(=O)c1ncn([C@@H]2O[C@H](CO)[C@@H](O)[C@H]2O)n1` [RIBAVIRIN], the MIC is 10 µg/mL (≈ 40.9 µM).

Take `Nc1nccc2c1ncn2[C@@H]1C[C@H](CO)[C@H](O)C1O` (some centres undefined): the MIC turned out to be 0.1 µg/mL (≈ 0.378 µM).

A further assay deals with Vaccinia virus. In words: Compound was tested for the concentration required to reduce vaccinia virus induced cytopathogenicity by 50% in primary rabbit kidney cell cultures. The assay is classed as functional. Conditions: Orthopoxvirus vaccinia. For orientation: Protection from cytopathic effect is a common read-out in antiviral testing.
The compound `Nc1ncnc2c1ncn2C[C@@H](O)CO` gave an MIC of 70 µg/mL (≈ 335 µM).
